Laboratory results as given in article PMC6696115, “Characterization of Antimicrobial, Antioxidant, and Leishmanicidal Activities of Schiff Base Derivatives of 4-Aminoantipyrine” (Molecules, 2019).
≈ marks a conversion by molar mass, not a printed value.

Columns and labels:
[1] = test system: Aspergillus niger ATCC 6275; assay: antimicrobial serial microdilution, A. niger; format: cell-based
Protocol: (§1) The in vitro antifungal and antimicrobial activities were determined by testing the Schiff bases against the fungi Saccharomyces cerevisiae, Candida albicans, and Aspergillus niger and the bacteria Staphylococcus aureus, Enterococcus faecalis (Gram-positive), Pseudomonas aeruginosa, and Escherichia coli (Gram-negative).
(§2) The bacterial inoculum was prepared by emulsifying overnight colonies from an agar medium in broth (Mueller–Hinton broth). The suspensions were adjusted to a final organism density of 5 × 10^5 colony former units (cfu)/mL. […] The emulsifying of A. niger cultures was done by pouring 5 mL of saline and 0.1% of polysorbate 80 over the Petri dishes. Then, 100 µL of this suspension were diluted in 5 mL of saline and adjusted to an optical density of 0.1 at 530 nm. For S. cerevisiae, fresh exponential YPAD (yeast extract 1%, peptone 2%, adenine 0.004%, […]) cultures were adjusted to an optical density of 0.5 at 600 nm, and then diluted to the equivalent of 1 × 10^4 cells/mL (10^−3 dilution). Stock solutions of Schiff bases were prepared by dissolving them in DMSO at 10 mg/mL. […] The range of concentrations used was empirically selected for each organisms and the Schiff base. Drug sensitivities were assayed by serial dilutions in 96-well plates as previously described. A row with media and cells but without drug was the positive control. The blank was done by preparing a row with media and drugs, but without cells. Plates were fitted with a tight lid before incubation to prevent desiccation. […] The minimum bactericidal concentration (MBC) and fungicidal concentration (MFC) were determined by spreading 100 µL of culture from each well onto a plate (Mueller–Hinton agar for bacteria, Sabouraud dextrose agar for fungi except S. cerevisiae, and YPAD for S. cerevisiae).

[2] = test system: S. cerevisiae wild-type (W303 and BY4741 backgrounds); assay: drop test, wild-type yeast; format: cell-based, Saccharomyces cerevisiae; settings: wild-type cells
Protocol: Since the Schiff bases have a limited solubility in dimethyl sulfoxide (DMSO), first, we tested the toxicity of DMSO against the selected microorganism. […] Wild-type cells from W303 background seem to be more resistant, and sensitivity is observed at around 4% DMSO.
Next, we wanted to evaluate the oxidative activity. To do this, drop test assays were performed with wild-type (W303 and BY4741 backgrounds) and sod1 (BY4741 background) yeast cells in the presence of 200 µg/mL of the analyzed Schiff bases (Figure 3). The SOD1 gene encodes superoxide dismutase 1, an enzyme with a major role in detoxifying ROS species generated during metabolism or because of environmental exposure. sod1 mutant cells are unprotected against oxidative agents, decreasing survival in their presence. […] Also, wild-type cells are shown as control, unaffected by the Schiff bases.
For the drop test with S. cerevisiae, wild-type strain (background W303), and wild type and sod1 mutant cells (background BY4741) were grown overnight in YPAD media until an optical density of 0.5 at 600 nm was reached (equivalent to 1 × 10^7 cells/mL). Three serial dilutions were prepared and 5 µL of each was spotted onto a plate (approximately 1 × 10^5, 1 × 10^4, 1 × 10^3, and 1 × 10^2 cells/spot). YPAD plates were supplemented with 200 µg/mL of each Schiff base, and one plate supplemented with 2% DMSO and one plate with YPAD without any drug were used as controls. Plates were incubated at 25 °C for 24, 48, and 72 h.

[3] = test system: S. cerevisiae; set-up: method as in PMID 24028688; settings: published data; cited from earlier work
[4] = test system: Escherichia coli ATCC 25922; assay: antimicrobial serial microdilution, E. coli; format: cell-based
Protocol: as §1, §2

[5] = test system: Staphylococcus aureus ATCC 29213; assay: antimicrobial serial microdilution, S. aureus; format: cell-based
Protocol: as §1, §2

[6] = test system: S. cerevisiae (backgrounds W303 and BY4741); assay: antimicrobial serial microdilution, S. cerevisiae; format: cell-based, Saccharomyces cerevisiae
Protocol: as §1, §2

[7] = test system: Candida albicans ATCC 10231; assay: antimicrobial serial microdilution, C. albicans; format: cell-based
Protocol: as §1, §2

[8] = test system: Enterococcus faecalis ATCC 29212; assay: antimicrobial serial microdilution, E. faecalis; format: cell-based
Protocol: as §1, §2

[9] = test system: RAW 264.7 cells; assay: cell viability, MTT dye assay; format: cell-based, murine; settings: RAW 264.7, exposure to 400 µM, 48 h
Protocol: The specificity and selectivity for the pathogen target is a key point for any potential drug.
The medium was renewed once a week. The viability was determined using MTT (thiazolyl blue tetrazolium bromide) dye assay as described previously for leishmanicidal activity assessment, with some variations. Here, 5 × 10^4 cells/well in a final volume of 100 µL were deposited into a 96-well plate in triplicate. Saponin (2 and 4 mg/mL) and untreated cells were used as the positive control and negative control, respectively. Schiff bases were dissolved in DMSO to obtain different serial concentrations (0.01–2000 µM). […] Cells were pelleted by centrifugation at 4400 rpm for 10 minutes and the media was removed. Next, 100 µL/well of DMSO were added and the absorbance at 570 nm was recorded. A reference wavelength of 630 nm was used for background subtraction.

[10] = test system: promastigotes from L. mexicana (M379); assay: leishmanicidal activity, MTT colorimetric assay; format: cell-based; settings: Leishmania mexicana, 48 h exposure, 1% DMSO
Protocol: Leishmanicidal activities of all Schiff bases were evaluated by measuring promastigote mitochondrial activity using MTT colorimetric assay as described previously. […] The medium was renewed every four days. Parasite density was determined in a Neubauer chamber.
Into each well of a 96-well cell culture dish was dispensed 1 × 10^6 parasites. A stock solution of each of the Schiff Base was prepared in DMSO, and serial dilutions were added to the parasite suspension, keeping the solvent concentration at 1%. The final volume was 100 µL for each well and triplicate conditions were carried out. Pentamidine treatment (100 µg/mL) and untreated parasites were used as positive control and negative control, respectively. After exposure to the compounds for 48 h in culture medium, 10 µL of a solution of 5 mg/mL MTT dissolved in PBS was added to each well. […] Later, the plate was centrifuged at 4400 rpm for 10 min and the culture medium was then aspirated. Next, 100 µL of DMSO were added into each well to solubilize the formazan and the plate was shaken for 5 min. The colored formazan salt was measured by recording changes in absorbance at 570 nm using a microplate reader, a BioTek Synergy HT spectrophotometer. A reference wavelength of 630 nm was used to subtract background. Optical densities were analyzed as the quantity of formazan is directly proportional to the number of viable parasites. Data were analyzed with the statistical software GraphPad Prism.

[11] = DPPH radical scavenging assay; format: biochemical; settings: 30 min, room temperature, dark, absorbance 515 nm
Protocol: This was used immediately. The experimental procedure was adapted from the literature. Briefly, in a 96-well plate, 100 µL of solution of DPPH (2, 2-diphenyl-1-picrylhydrazyl) radical (0.2 mM in methanol) was added to 100 µL of methanolic solutions of 3a–j, 4, or 5, prepared as serial two-fold dilutions from the stock solution. Standards were also prepared in the same concentrations.
The percentage of DPPH scavenging was then calculated by using the following formula: % DPPH scavenging=100∗Asample+DPPH−Asample blank/ADPPH−Asolvent

[12] = test system: P. aeruginosa ATCC 27853; assay: antimicrobial serial microdilution, P. aeruginosa; format: cell-based; settings: Pseudomonas aeruginosa, ATCC27853, 37 °C, 24 h
Protocol: as §1, §2

[13] = Enterococcus faecalis, ATCC29212, serial microdilution, 37 °C, 24 h

C[S+](C)[O-] [DMSO, dimethyl sulfoxide]
IC50 DMSO A. niger ([1]; DMSO toxicity): 4.36 ± 2.0% | MIC DMSO A. niger ([1]; DMSO toxicity): 19.22 ± 1.3% | NIC DMSO A. niger ([1]; DMSO toxicity): 1.78 ± 0.4% | DMSO concentration at which cells begin to show diminished viability (drop test) ([2]; BY4741 strain): ≥ 3% | DMSO concentration at which sensitivity is observed (drop test) ([2]; W303 background): around 4% | DMSO concentration significantly toxic for S. cerevisiae [3]: over 2% | NIC DMSO E. coli ([4]; DMSO toxicity): 11.95 ± 2.9% | IC50 DMSO S. aureus ([5]; DMSO toxicity): 20.36 ± 5.2% | MIC DMSO S. aureus ([5]; DMSO toxicity): 32.64 ± 6.9% | NIC DMSO S. aureus ([5]; DMSO toxicity): 8.52 ± 0.9% | IC50 DMSO S. cerevisiae ([6]; DMSO toxicity): 35.62 ± 1.0% | MIC DMSO S. cerevisiae ([6]; DMSO toxicity): 71.47 ± 1.7% | NIC DMSO S. cerevisiae ([6]; DMSO toxicity): 5.04 ± 1.1% | IC50 DMSO C. albicans ([7]; DMSO toxicity): 8.50 ± 0.5% | MIC DMSO C. albicans ([7]; DMSO toxicity): 14.98 ± 0.6% | NIC DMSO C. albicans ([7]; DMSO toxicity): 4.94 ± 0.5% | IC50 DMSO E. faecalis ([8]; DMSO toxicity): 8.66 ± 0.6% | MIC DMSO E. faecalis ([8]; DMSO toxicity): 20.02 ± 1.3% | NIC DMSO E. faecalis ([8]; DMSO toxicity): 3.68 ± 0.2%

Cc1c(N=Cc2ccccc2)c(=O)n(-c2ccccc2)n1C [Compound 3a, 4-Benzylideneamino-1,5-dimethyl-2-phenyl-1H-pyrazol-3(2H)-one]
% Live Cells [9]: 27.1 ± 3.4% | MIC ([1]; Aspergillus niger, ATCC6275, serial microdilution, 96-well plates, 35 °C, 48 h, max 2% DMSO): > 200 mg/L | IC50 [10]: > 200 µM | MIC ([4]; Escherichia coli, ATCC25922, serial microdilution, 37 °C, 24 h): > 200 mg/L | MIC ([5]; Staphylococcus aureus, ATCC29213, serial microdilution, 37 °C, 24 h): > 200 mg/L | MIC ([6]; Saccharomyces cerevisiae, serial microdilution, 35 °C, 48 h, read-out: MIC S. cerevisiae): > 200 mg/L | MIC ([7]; Candida albicans, ATCC10231, serial microdilution, 35 °C, 48 h): > 200 mg/L | IC50 [11]: > 200 µM | MIC [12]: > 200 mg/L | IC50 [8, 13]: 12.2 mg/L (≈ 41.9 µM) | MIC [8, 13]: 32.3 ± 11.7 mg/L (≈ 111 µM) | NIC E. faecalis ([8]; noninhibitory concentration, serial microdilution, 37 °C, 24 h): 3.6 ± 0.7 µg/mL | melting point: 176.8 to 177.2 °C
